One experiment deals with JeKo-1 cells. In words: Antiproliferative effect, MTS cell viability assay, JeKo-1 cells. It is filed as cell-based. The settings on record: Homo sapiens; JeKo-1 mantle cell lymphoma cells; read-out: IC50 (anti-proliferation) JeKO-1 cells. In outline: (§1)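 Readout was MTS-derived formazan absorbance (490 nm) reflecting metabolically active cells. Treatment lasted 72 h over a 0–10 μM range (0.001, 0.01, 0.1, 1, 10 μM) in JeKo-1 and Mino B-cell malignancy cells.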

The next experiment has as its system Mino cells. In words: Antiproliferative effect, MTS cell viability assay, Mino cells. Type of experiment: cell-based. To be noted: Homo sapiens, MINO, Mino mantle cell lymphoma cells; read-out: IC50 (anti-proliferation) Mino cells. In outline: as §1
(Tetrazolium dyes change colour on reduction, which living cells bring about.)

A further experiment addresses BTK (Homo sapiens, UniProt Q06187). The experiment in a line: Degradation of BTK protein in Namalwa cells (Western blot; DC50, Dmax). The settings on record: for DC50: cell line not given. Background: A western blot detects proteins with antibodies after separation by electrophoresis.
Setting [1] is: read-out: DC50 (BTK degradation), concentration giving 50% reduction of BTK expression level.
[2] abbreviates: read-out: Dmax (BTK degradation).

Molecules are shown by their SMILES. Where two headings read alike, the source gives them in different places.

Sequence of BTK (Q06187 whole entry): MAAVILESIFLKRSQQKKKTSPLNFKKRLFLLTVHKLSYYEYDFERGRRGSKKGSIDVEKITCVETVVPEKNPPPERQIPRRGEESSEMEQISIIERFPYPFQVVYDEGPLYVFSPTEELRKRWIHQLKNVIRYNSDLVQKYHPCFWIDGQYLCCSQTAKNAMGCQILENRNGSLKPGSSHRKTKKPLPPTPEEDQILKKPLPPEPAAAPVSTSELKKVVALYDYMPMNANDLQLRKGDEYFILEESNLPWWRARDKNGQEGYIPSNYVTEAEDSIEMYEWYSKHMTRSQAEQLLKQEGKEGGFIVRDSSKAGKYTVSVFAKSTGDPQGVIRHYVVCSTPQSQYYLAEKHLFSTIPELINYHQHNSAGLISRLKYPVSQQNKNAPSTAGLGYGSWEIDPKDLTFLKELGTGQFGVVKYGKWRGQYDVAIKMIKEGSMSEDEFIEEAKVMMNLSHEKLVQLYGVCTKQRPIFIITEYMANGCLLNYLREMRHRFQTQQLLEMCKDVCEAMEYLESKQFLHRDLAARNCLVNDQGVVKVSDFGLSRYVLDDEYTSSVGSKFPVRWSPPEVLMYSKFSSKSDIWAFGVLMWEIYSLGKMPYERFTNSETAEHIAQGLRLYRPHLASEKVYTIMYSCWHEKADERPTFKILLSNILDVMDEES
Experimental for BTK: Namalwa, JeKo-1, or Mino cells were plated in 24-well plates at a density of 10^5 cells/well. Media containing various drug concentrations were added on the day following plating (day 0) and allowed to incubate for 24 hours for Western blot. Media with the tested compound was changed every other day. […] Media were removed and dishes were washed with 1×DPBS. Lysates were made by adding 150 μL of complete lysis solution and scraping cells into a 1.5 mL microcentrifuge tube. Lysates were placed on a rotisserie at 4° C. for 30 min and then spun at 4° C. at 12000 rcf for 10 min. Supernatants were assayed for protein content, snap-frozen, and stored a −80° C. if not run immediately. Then 50 μg of protein was subjected to Western blot protocol. […] They were then imaged on a LICOR infrared scanner.

Usually DC50 stands for the concentration giving 50% degradation. By Dmax is commonly meant the greatest extent of degradation seen. For the molecule `Nc1ncnc2c1c(-c1ccc(Oc3ccccc3)cc1)nn2C1CCN(C2CCN(CCCN3CCN(c4ccc(N5CCC(=O)NC5=O)cc4)CC3)C2)CC1` (stereo not drawn) [Compound 577, 1-(4-(4-(3-(3-(4-(4-amino-3-(4-phenoxyphenyl)-1H-pyrazolo[3,4-d]pyrimidin-1-yl)piperidin-1-yl)pyrrolidin-1-yl)propyl)piperazin-1-yl)phenyl)dihydropyrimidine-2,4(1H,3H)-dione], the IC50 in the experiment on JeKo-1 cells and in the experiment on Mino cells was 1 to 10 µM throughout. Moreover, the half-maximal degradation concentration (DC50) at BTK (setting [1]) was below 0.01 µM. On BTK (setting [2]), the greatest degradation seen (Dmax) is above 90%.
For `Nc1ncnc2c1c(-c1ccc(Oc3ccccc3)cc1)nn2C1CCN(C2CCN(CCN3CCN(c4ccc(N5CCC(=O)NC5=O)cc4)CC3)CC2)CC1` [Compound 570, 1-(4-(4-(2-(4-(4-amino-3-(4-phenoxyphenyl)-1H-pyrazolo[3,4-d]pyrimidin-1-yl)-[1,4′-bipiperidin]-1′-yl)ethyl)piperazin-1-yl)phenyl)dihydropyrimidine-2,4(1H,3H)-dione], the IC50 in the experiment on JeKo-1 cells and with Mino cells was 1 to 10 µM throughout. Moreover, the DC50 on BTK (setting [1]) was in the range of 0.01 to 0.05 µM. Further, the Dmax at BTK (setting [2]) was above 90%.
Turning to `NC(=O)c1c(-c2ccc(Oc3ccccc3)cc2)nn2c1NCCC2C1CCN(CC2CCN(C(=O)N3CCC(CN4CCC(c5ccc6c(c5)CN(C5CCC(=O)NC5=O)C6=O)CC4)CC3)CC2)CC1` (stereo not drawn) [Compound 376, 7-(1-((1-(4-((4-(2-(2,6-dioxopiperidin-3-yl)-1-oxoisoindolin-5-yl)piperidin-1-yl)methyl)piperidine-1-carbonyl)piperidin-4-yl)methyl)piperidin-4-yl)-2-(4-phenoxyphenyl)-4,5,6,7-tetrahydropyrazolo[1,5-a]pyrimidine-3-carboxamide], the IC50 in the experiment with JeKo-1 cells and in the experiment with Mino cells was 1 to 10 µM each time. Besides, the Dmax on BTK was above 75%. Further, the DC50 on BTK (BTK degradation) lay within 0.01 to 0.05 µM.
For `NC(=O)c1c(-c2ccc(Oc3ccccc3)cc2)nn2c1NCC[C@H]2C1CCN(CC2CCN(C(=O)N3CCC(CN4CCN(c5ccc6c(c5)C(=O)N(C5CCC(=O)NC5=O)C6=O)CC4)CC3)CC2)CC1` (stereo partly drawn) [Compound 409, (7S)-7-(1-((1-(4-((4-(2-(2,6-dioxopiperidin-3-yl)-1,3-dioxoisoindolin-5-yl)piperazin-1-yl)methyl)piperidine-1-carbonyl)piperidin-4-yl)methyl)piperidin-4-yl)-2-(4-phenoxyphenyl)-4,5,6,7-tetrahydropyrazolo[1,5-a]pyrimidine-3-carboxamide], the IC50 with JeKo-1 cells was 1 to 10 µM; with Mino cells, below 1 µM. Besides, on BTK (setting [1]), the DC50 was below 0.01 µM. In addition, the Dmax on BTK (setting [2]) is above 90%.
The like results for `Nc1ncnc2c1c(-c1ccc(Oc3ccccc3)cc1)nn2C1CCN(C(=O)C2CN(C3CCN(c4ccc5c(c4)CN(C4CCC(=O)NC4=O)C5=O)CC3)C2)CC1` (stereo not drawn) [Compound 510, 3-(5-(4-(3-(4-(4-amino-3-(4-phenoxyphenyl)-1H-pyrazolo[3,4-d]pyrimidin-1-yl)piperidine-1-carbonyl)azetidin-1-yl)piperidin-1-yl)-1-oxoisoindolin-2-yl)piperidine-2,6-dione] were, in that order, below 1 µM, below 1 µM, below 0.01 µM and above 90%.
For `NC1=NC=NC2C1C(c1ccc(Oc3ccccc3)cc1)=NN2C1CCN(C(=O)N2CC(C3CN(c4ccc5c(c4)CN(C4CCC(=O)NC4=O)C5=O)C3)C2)CC1` (stereo not drawn) [Compound 494, 3-(5-(1′-(4-(4-amino-3-(4-phenoxyphenyl)-3a,7a-dihydro-1H-pyrazolo[3,4-d]pyrimidin-1-yl)piperidine-1-carbonyl)-[3,3′-biazetidin]-1-yl)-1-oxoisoindolin-2-yl)piperidine-2,6-dione], in that order: below 1 µM, below 1 µM, below 0.01 µM and above 90%.
For `Nc1ncnc2c1c(-c1ccc(Oc3ccccc3)cc1)nn2[C@@H]1CCCN(C2CCN(C(=O)N3CCC(CCCN4CCC(c5ccc6c(c5)C(=O)N(C5CCC(=O)NC5=O)C6=O)CC4)CC3)CC2)C1` (stereo partly drawn) [Compound 197, 5-(1-(3-(1-((R)-3-(4-amino-3-(4-phenoxyphenyl)-1H-pyrazolo[3,4-d]pyrimidin-1-yl)-[1,4′-bipiperidine]-1′-carbonyl)piperidin-4-yl)propyl)piperidin-4-yl)-2-(2,6-dioxopiperidin-3-yl)isoindoline-1,3-dione], the IC50 in the experiment on JeKo-1 cells was above 10 µM; with Mino cells, 1 to 10 µM. At BTK, this molecule showed a Dmax above 75%. The same molecule yielded a half-maximal degradation concentration (DC50) at BTK (BTK degradation) of 0.01 to 0.05 µM.
`NC1=NC=NC2C1C(c1ccc(Oc3ccccc3)cc1)=NN2[C@@H]1CCCN(C(=O)N2CC(C3CN(c4ccc5c(c4)CN(C4CCC(=O)NC4=O)C5=O)C3)C2)C1` (stereo partly drawn) [Compound 498, 3-(5-(1′-((3R)-3-(4-amino-3-(4-phenoxyphenyl)-3a,7a-dihydro-1H-pyrazolo[3,4-d]pyrimidin-1-yl)piperidin-1-carbonyl)-[3,3′-biazetidin]-1-yl)-1-oxoisoindolin-2-yl)piperidine-2,6-dione]: the IC50 with JeKo-1 cells and with Mino cells was below 1 µM in each case. Further, the DC50 on BTK (setting [1]) is below 0.01 µM. Besides, the Dmax at BTK (setting [2]) is above 90%.
With `NC(=O)c1c(-c2ccc(Oc3ccccc3)cc2)nn2c1NCCC2C1CCN(CC2CCN(CC3CCN(c4ccc5c(c4)CN(C4CCC(=O)NC4=O)C5=O)CC3)CC2)CC1` (stereo not drawn) [Compound 314, 7-(1-((1-((1-(2-(2,6-dioxopiperidin-3-yl)-1-oxoisoindolin-5-yl)piperidin-4-yl)methyl)piperidin-4-yl)methyl)piperidin-4-yl)-2-(4-phenoxyphenyl)-4,5,6,7-tetrahydropyrazolo[1,5-a]pyrimidine-3-carboxamide], the IC50 in the experiment on JeKo-1 cells and in the experiment on Mino cells was 1 to 10 µM each time. At BTK, this molecule registered a Dmax above 90%. At BTK (BTK degradation), this molecule showed a DC50 of 0.01 to 0.05 µM.
`NC(=O)c1c(-c2ccc(Oc3ccccc3)cc2)nn2c1NCCC2C1CCN(C2CCN(C(=O)N3CCC(CC4CCN(c5ccc6c(c5)C(=O)N(C5CCC(=O)NC5=O)C6=O)CC4)CC3)CC2)CC1` (stereo not drawn) [Compound 353, 7-(1′-(4-((1-(2-(2,6-dioxopiperidin-3-yl)-1,3-dioxoisoindolin-5-yl)piperidin-4-yl)methyl)piperidine-1-carbonyl)-[1,4′-bipiperidin]-4-yl)-2-(4-phenoxyphenyl)-4,5,6,7-tetrahydropyrazolo[1,5-a]pyrimidine-3-carboxamide]: the values for the IC50 in the experiment with JeKo-1 cells and with Mino cells were 1 to 10 µM and below 1 µM, respectively. On BTK, this molecule registered a Dmax above 90%. For the same molecule, at BTK (BTK degradation), the DC50 was in the range of 0.01 to 0.05 µM.
For the molecule `NC(=O)c1c(-c2ccc(Oc3ccccc3)cc2)nn2c1NCC[C@H]2C1CCN(C2CCN(C(=O)N3CCC(N4CCC(c5ccc6c(c5)C(=O)N(C5CCC(=O)NC5=O)C6=O)CC4)CC3)CC2)CC1` (stereo partly drawn) [Compound 387, (7S)-7-(1′-(4-(2-(2,6-dioxopiperidin-3-yl)-1,3-dioxoisoindolin-5-yl)-[1,4′-bipiperidine]-1′-carbonyl)-[1,4′-bipiperidin]-4-yl)-2-(4-phenoxyphenyl)-4,5,6,7-tetrahydropyrazolo[1,5-a]pyrimidine-3-carboxamide], the IC50 in the experiment on JeKo-1 cells and in the experiment on Mino cells was 1 to 10 µM each time. At BTK, this molecule had a Dmax above 90%. Besides, the DC50 at BTK (BTK degradation) lay in the range of 0.01 to 0.05 µM.
On to `Nc1ncnc2c1c(-c1ccc(Oc3ccccc3)cc1)nn2C1CCN(C2CCN(C(=O)N3CCC(CC4CCN(c5ccc6c(c5)CN(C5CCC(=O)NC5=O)C6=O)CC4)CC3)CC2)CC1` (stereo not drawn) [Compound 238, 3-(5-(4-((1-(4-(4-amino-3-(4-phenoxyphenyl)-1H-pyrazolo[3,4-d]pyrimidin-1-yl)-[1,4′-bipiperidine]-1′-carbonyl)piperidin-4-yl)methyl)piperidin-1-yl)-1-oxoisoindolin-2-yl)piperidine-2,6-dione], for which the IC50 is 1 to 10 µM in the experiment with JeKo-1 cells and below 1 µM in the experiment on Mino cells. The greatest degradation seen (Dmax) on BTK was above 90%. The same molecule returned a DC50 at BTK (BTK degradation) below 0.01 µM.
For the molecule `Nc1ncnc2c1c(-c1ccc(Oc3ccccc3)cc1)nn2C1CCC(C(=O)N2CC(C3CCN(c4ccc5c(c4)CN(C4CCC(=O)NC4=O)C5=O)CC3)C2)CC1` (stereo not drawn) [Compound 514, 3-(5-(4-(1-(4-(4-amino-3-(4-phenoxyphenyl)-1H-pyrazolo[3,4-d]pyrimidin-1-yl)cyclohexane-1-carbonyl)azetidin-3-yl)piperidin-1-yl)-1-oxoisoindolin-2-yl)piperidine-2,6-dione], the IC50 with JeKo-1 cells and in the experiment with Mino cells was below 1 µM throughout. Besides, at BTK (setting [1]), the DC50 was below 0.01 µM. Moreover, on BTK (setting [2]), the Dmax is above 90%.
Turning to `NC(=O)c1c(-c2ccc(Oc3ccccc3)cc2)nn2c1NCCC2C1CCN(C2CCN(CCN3CCN(c4ccc5c(c4)C(=O)N(C4CCC(=O)NC4=O)C5=O)CC3)CC2)CC1` (stereo not drawn) [Compound 307, 7-(1′-(2-(4-(2-(2,6-dioxopiperidin-3-yl)-1,3-dioxoisoindolin-5-yl)piperazin-1-yl)ethyl)-[1,4′-bipiperidin]-4-yl)-2-(4-phenoxyphenyl)-4,5,6,7-tetrahydropyrazolo[1,5-a]pyrimidine-3-carboxamide], the IC50 in the experiment with JeKo-1 cells was above 10 µM; with Mino cells, 1 to 10 µM. Besides, the Dmax on BTK is above 75%. The molecule also came in with a DC50 on BTK (BTK degradation) above 0.05 µM.
For `Nc1ncnc2c1c(-c1ccc(Oc3ccccc3)cc1)nn2C1CCN(C2CCN(CCCN3CCC(c4ccc(N5CCC(=O)NC5=O)cc4)CC3)CC2)CC1` [Compound 571, 1-(4-(1-(3-(4-(4-amino-3-(4-phenoxyphenyl)-1H-pyrazolo[3,4-d]pyrimidin-1-yl)-[1,4′-bipiperidin]-1′-yl)propyl)piperidin-4-yl)phenyl)dihydropyrimidine-2,4(1H,3H)-dione], the IC50 with JeKo-1 cells and in the experiment on Mino cells was below 1 µM each time. In addition, on BTK (setting [1]), the 50% degradation concentration (DC50) was in the range of 0.01 to 0.05 µM. Moreover, the Dmax at BTK (setting [2]) was above 90%.

Source of the values: US12139492B2 (Endotarget Inc., priority 2021, dated 2024).
